Source: publication PMC9069370, “Integrated Design of a Membrane‐Lytic Peptide‐Based Intravenous Nanotherapeutic Suppresses Triple‐Negative Breast Cancer” (Advanced Science, 2022)
Structures can show the parent of a compound that is named as a salt. Where two headings read alike, the source gives them in different places. Square brackets hold non-standard residues; d marks the D form. Peptide text beside a SMILES is read from it.

How the values were obtained:
[1] = tested on: HMLER‐shEcad; experiment: cells; assay type: cell-based, human
Excerpt: (§1) […], and MCF-10A cells were maintained in MEGM with supplements and growth factors bovine pituitary extract, hydrocortisone, human epidermal growth factor, insulin, and gentamicin/amphotericin-B.

[2] = tested on: MCF‐10A; experiment: cells; assay type: cell-based, human
Excerpt: as §1

[3] = tested on: HMLER‐shEcad tumorspheres; experiment: cells; assay type: cell-based, human; settings: for IC50 / IC90: Homo sapiens; for IC50: 120 h, read-out: IC50 against HMLER‐shEcad tumorspheres; for IC90: read-out: IC90 against HMLER‐shEcad tumorspheres
[4] = tested on: MCF‐10A mammospheres; experiment: Mammosphere viability assay (TOX8); assay type: cell-based, human; settings: for D‐enantiomer average IC90 against MCF‐10A mammospheres: one average for d‐DHK and d‐EEK together
[5] = tested on: HMLER‐shEcad; experiment: Resistance formation after prolonged drug exposure, 2D culture; assay type: cell-based, human; settings: Homo sapiens
Method: Cancer stem cells can survive treatment, gain resistance, and reseed tumors, presenting a major challenge for chemotherapy.^[ [2] ^] […] Drugs were added with medium every 3–4 days, maintaining smooth cell growth, and 125 000 cells were split into new T25 flasks with a total volume of 5 mL once per week.

[6] = tested on: HMLER; experiment: cells; assay type: cell-based, human
Excerpt: as §1

[7] = tested on: HEK293T; experiment: cells; assay type: cell-based, human
[8] = tested on: U2OS; assay type: cell-based, human; settings: 2D culture, MTT, 72 h incubation; library peptides n = 2; D-enantiomers and small molecules replicated six times; read-out: IC50 (µM) U2OS
[9] = tested on: human red blood cells; experiment: Haemolysis (human red blood cells); assay type: cell-based; settings: PBS, 37 °C, 1 h, one value for DHK, d‐DHK and d‐EEK together
Method: Fresh human red blood cells were obtained from Interstate Blood Bank, Inc., and thoroughly washed in PBS until the supernatant was clear. The peptide was serially diluted in PBS starting at a concentration of 200 µM. […] As a positive lysis control, 1% triton was used. […] After centrifugation, 10 µL of supernatant was transferred to 90 µL of ddH2O in a fresh 96‐well plate.

[10] = 2D culture, MTT, 72 h incubation, library peptides average of two independent experiments (n = 2), D-enantiomers and small molecules replicated six times, read-out: IC50 (µM) HMLER
[11] = 2D culture, MTT, 72 h incubation, library peptides average of two independent experiments (n = 2), D-enantiomers and small molecules replicated six times, read-out: IC50 (µM) HMLER-shEcad
[12] = non-cancerous cells, 2D culture, MTT, 72 h incubation, library peptides n = 2, D-enantiomers and small molecules replicated six times, read-out: IC50 (µM) MCF-10A
[13] = non-cancerous cells, 2D culture, MTT, 72 h incubation, library peptides n = 2, D-enantiomers and small molecules replicated six times, read-out: IC50 (µM) HEK293T

`COc1cccc2c1C(=O)c1c(O)c3c(c(O)c1C2=O)C[C@@](O)(C(=O)CO)C[C@@H]3O[C@H]1C[C@H](N)[C@H](O)[C@H](C)O1` [Doxorubicin, Doxorubicin hydrochloride, reference compound] was tested, and the “IC90 in 2D assay” value ([1]; 2D HMLER‐shEcad (Figure 3d,f), cells remained viable in the high micromolar range) was “could not be attained”, the IC50 ([1]; Homo sapiens, read-out: IC50, HMLER-shEcad cell viability, 2D culture, co-incubation with 5 µM z-VAD-FMK) was 0.0477 ± 0.0026 µM and the IC50 ([1]; Homo sapiens, read-out: IC50, HMLER-shEcad cell viability, 2D culture, co-incubation with 20 µM necrostatin-1) was 0.0631 ± 0.0042 µM. For the same compound, the IC50 ([1]; Homo sapiens, 2D culture, read-out: IC50, HMLER-shEcad cell viability, compound alone) was 0.0031 ± 0.0004 µM, the “therapeutic window (fold IC50) in 2D assays” value ([2]; 2D assays) was greater than 100 fold and the “selectivity for cancerous cells over non‐tumorigenic MCF‐10A” value ([2]; 2D culture, ratio of IC50) was greater than 160 fold. The tumorsphere cell viability ([3]; HMLER‐shEcad tumorspheres, at 133 µM) was greater than 15%, the IC50 ([3]; 3D multicellular spheroids, 5 days, TOX8 fluorescence read-out) was 43000 ± 6000 nM and the IC90 ([3]; 3D multicellular spheroids, reducing tumorsphere cell viability by 90%) was 138000 ± 11000 nM. The “IC90 against MCF‐10A mammospheres” value [4] was 167000 ± 7000 nM, the “therapeutic window (fold IC50) in the 3D assay” value ([4]; 3D spheroid assay) was “≈ 3 fold” and the IC50 ([5]; 240 h, 2D HMLER‐shEcad after 10 days co‐incubation with 30 nM doxorubicin, read-out: IC50 of doxorubicin after prolonged doxorubicin exposure) was 189 ± 68 nM. It also gave an IC50 ([5]; 2D HMLER‐shEcad, vehicle, read-out: IC50 of doxorubicin, cells before/without doxorubicin exposure) of 24 ± 2 nM.
In the case of `CC[C@@H](C(=O)[C@@H](C)[C@@H](O)[C@H](C)[C@@H]1O[C@@H]([C@@H](CC)C(=O)O)CC[C@@H]1C)[C@H]1O[C@]2(C=C[C@@H](O)[C@]3(CC[C@@](C)([C@H]4CC[C@](O)(CC)[C@H](C)O4)O3)O2)[C@H](C)C[C@@H]1C` [Salinomycin, salinomycin, reference compound], the IC50 ([6]; Homo sapiens, 72 h, read-out: IC50 (µM) HMLER, 2D culture, MTT, 72 h incubation, library peptides average of two independent experiments (n = 2), D-enantiomers and small molecules replicated six times) is reported as 0.37 ± 0.08 µM, the IC50 ([6]; Homo sapiens, read-out: IC50 of salinomycin co‐administered with DHK, HMLER, with […] DHK) is reported as 0.05 µM and the “increase in anticancer efficiency” value ([6]; addition of 5 µM DHK) is reported as 100 fold. The IC50 ([6]; read-out: IC50 (µM) HMLER, 2D culture, MTT, 72 h incubation, library peptides average of two independent experiments (n = 2), D-enantiomers and small molecules replicated six times) was 0.4 ± 0.1 µM, the cancer cell viability ([6]; with 5 µM DHK, at the lowest dose of salinomycin) was less than 1% and the “factor by which the dosage of salinomycin required to kill cells is reduced” value ([6]; with […] DHK, both HMLER and HMLER‐shEcad) was 8–27. For the same compound, the IC50 ([1]; Homo sapiens, 72 h, read-out: IC50 (µM) HMLER-shEcad, 2D culture, MTT, 72 h incubation, library peptides average of two independent experiments (n = 2), D-enantiomers and small molecules replicated six times) was 0.92 ± 0.28 µM, the IC50 ([1]; Homo sapiens, read-out: IC50 of salinomycin co‐administered with DHK, HMLER‐shEcad, with […] DHK) was 0.03 µM and the IC50 ([1]; read-out: IC50 (µM) HMLER-shEcad, 2D culture, MTT, 72 h incubation, library peptides average of two independent experiments (n = 2), D-enantiomers and small molecules replicated six times) was 0.9 ± 0.3 µM. The IC50 ([2]; Homo sapiens, MCF-10A, 72 h, read-out: IC50 (µM) MCF-10A, non-cancerous cells, 2D culture, MTT, 72 h incubation, library peptides n = 2, D-enantiomers and small molecules replicated six times) was 9.76 ± 2.28 µM, the IC50 ([2]; Homo sapiens, MCF-10A, read-out: IC50 of salinomycin co‐administered with DHK, MCF‐10A, with […] DHK) was 1.7 µM and the IC50 ([2]; read-out: IC50 (µM) MCF-10A, non-cancerous cells, 2D culture, MTT, 72 h incubation, library peptides n = 2, D-enantiomers and small molecules replicated six times) was 9.7 ± 2.3 µM. For the same compound, the IC50 ([7]; Homo sapiens, HEK-293T, 72 h, read-out: IC50 (µM) HEK293T, non-cancerous cells, 2D culture, MTT, 72 h incubation, library peptides n = 2, D-enantiomers and small molecules replicated six times) was 0.41 ± 0.1 µM, the IC50 ([7]; Homo sapiens, HEK-293T, read-out: IC50 of salinomycin co‐administered with DHK, HEK293T, with […] DHK) was 0.1 µM and the IC50 ([7]; read-out: IC50 (µM) HEK293T, non-cancerous cells, 2D culture, MTT, 72 h incubation, library peptides n = 2, D-enantiomers and small molecules replicated six times) was 0.4 ± 0.1 µM. For the same compound, the IC50 [3] was 22000 ± 5000 nM, the IC90 [3] was 44000 ± 17000 nM and the “IC90 against MCF‐10A mammospheres” value [4] was 34000 ± 20000 nM.
In the case of `CC(C)C[C@@H](NC(=O)CN)C(=O)N[C@H](CC(C)C)C(=O)N[C@H](CC(=O)O)C(=O)N[C@H](CC(C)C)C(=O)N[C@H](CC(C)C)C(=O)N[C@H](Cc1c[nH]cn1)C(=O)N[C@H](CC(C)C)C(=O)N[C@H](CC(C)C)C(=O)N[C@H](CC(C)C)C(=O)N[C@H](CCCCN)C(=O)N[C@H](C)C(=O)N[C@H](C)C(=O)NCC(=O)N[C@H](Cc1c[nH]c2ccccc12)C(N)=O` [d-DHK] (H-G[dL][dL][dD][dL][dL][dH][dL][dL][dL][dK][dA][dA]G[dW]-NH2), the IC50 [6, 10] is reported as 0.32 ± 0.07 µM, the IC50 [1, 11] is reported as 0.23 ± 0.04 µM and the IC50 ([1]; one value printed for each pair of peptides, cell line not given, read-out: IC50 (anticancer activity)) is reported as 0.3 ± 0.1 µM. It also gave an IC50 [2, 12] of 0.55 ± 0.06 µM, an IC50 [8] of 1.24 ± 0.03 µM and an IC50 [7, 13] of 1.55 ± 0.37 µM. The “D‐enantiomer average IC90 against MCF‐10A mammospheres” value [4] was 8000 ± 5000 nM and the HC50 [9] was 14 ± 5 µM.
With `CC(C)C[C@@H](NC(=O)CN)C(=O)N[C@H](CC(C)C)C(=O)N[C@H](CCC(=O)O)C(=O)N[C@H](CC(C)C)C(=O)N[C@H](CC(C)C)C(=O)N[C@H](CCC(=O)O)C(=O)N[C@H](CC(C)C)C(=O)N[C@H](CC(C)C)C(=O)N[C@H](CC(C)C)C(=O)N[C@H](CCCCN)C(=O)N[C@H](C)C(=O)N[C@H](C)C(=O)NCC(=O)N[C@H](Cc1c[nH]c2ccccc12)C(N)=O` [d-EEK] (H-G[dL][dL][dE][dL][dL][dE][dL][dL][dL][dK][dA][dA]G[dW]-NH2) the IC50 [6, 10] was 0.29 ± 0.01 µM, the IC50 [1, 11] was 0.29 ± 0.01 µM and the IC50 ([1]; 2D culture, read-out: IC50, HMLER-shEcad cell viability, compound alone) was 0.3 ± 0.1 µM. The IC50 ([1]; read-out: IC50, HMLER-shEcad cell viability, together with 5 µM caspase inhibitor z-VAD-FMK, 2D culture, co-incubation with 5 µM z-VAD-FMK) was 0.3 ± 0.1 µM, the IC50 [2, 12] was 1.07 ± 0.1 µM and the IC50 [8] was 4.78 ± 0.02 µM. The IC50 [7, 13] was 2.82 ± 0.07 µM, the “D‐enantiomer average IC90 against MCF‐10A mammospheres” value [4] was 8000 ± 5000 nM and the HC50 [9] was 14 ± 5 µM.
